According to US12279611B2, “Method for controlling insects where an alkoxylated glycerol is applied to soil” (priority 2016, dated 2025):
Values joined by “and” are separate entries in the source; they are usually repeats but may differ in a detail not shown here. Equal entries are not always repeated.

Experiments:
[1] = Wetting front test (soil migration by capillary action in soil-filled tubes, wetting front measured by caliper); format: physicochemical; details: for Migration: single replicates
Experimental: • Polymer A: Polymer formed from glycerol and ethylene oxide and propylene oxide units; molecular weight about 3000 g/mol, hydroxyl number about 56 mg KOH/g, clear liquid, dynamic viscosity at 25° C. about 582 cP, density at 25° C. about 1.02 g/cm^3. • Polymer B: Liquid composition, 70 wt % Polymer A, 10 wt % nonionic surfactant (ethoxylated alcohol, HLB about 13, hydroxyl number about 125), 10 wt % anionic surfactant (dodecylbenzene calcium sulfonate), and 10 wt % 1,2-propylene glycol. • Surfactant A: liquid, nonionic ethoxylated tristyrylphenol, HLB 10-11. • Surfactant B: nonionic EO-PO-EO Triblockcopolymer, average molecular weight about 2500 Da, pour point −4° C., HLB 1-7, solubility in water at least 10 wt % at 25° C. • Surfactant C: Alkyl polyethylene glycol ether based on C10-Guerbet alcohol, HLB about 13, solubility in water at least 10 wt % at 23° C. • Surfactant D: Calcium dodecylbenzene sulfonate. • Silica Thickener: White powder, hydrophilic fumed silica, specific surface area (BET) about 200 m^2/g; average primary particle diameter 12 nm, tapped density about […]. Wetting Front Test Procedure
A fine nylon netting was adhered (Polyseamseal® Caulk, Henkel Corp) to one end each of 15 cm×1.5 cm plastic tubes. Tubes were filled with Greenville silt loam (sand:silt:clay, 22:58:20). As soil was added, tubes were tapped on the lab bench to loosely pack the soil (approximately 50 g soil per tube). Aqueous solutions of subject treatments were prepared. Solutions (4 ml) were added to glass beakers (50 ml capacity), and the soil-filled tubes were placed in the beakers. Each treatment was replicated 4 times. […] Means were separated at the […] via ANOVA followed by Tukey's HSD.

[2] = Wetting front test with segment analysis (soil segments extracted with acetonitrile, broflanilide quantified by HPLC-UV); format: physicochemical; details: Example 3; for Concentration of broflanilide in segment 0-2 cm (average of four replicates): soil segment 0-2 cm; for Concentration of broflanilide in segment 2-4 cm (average of four replicates): soil segment 2-4 cm; for Concentration of broflanilide in segment 4-6 cm (average of four replicates): soil segment 4-6 cm; for Concentration of broflanilide in segment 6-8 cm (average of four replicates): soil segment 6-8 cm; for Concentration of broflanilide in segment 8-10 cm (average of four replicates): soil segment 8-10 cm
Experimental: A fine nylon netting was adhered (Polyseamseal® Caulk, Henkel Corp) to one end each of 15 cm×1.5 cm plastic tubes. Tubes were filled with Greenville silt loam (sand:silt:clay, 22:58:20). As soil was added, tubes were tapped on the lab bench to loosely pack the soil (approximately 50 g soil per tube). Aqueous solutions of subject treatments were prepared. Solutions (4 ml) were added to glass beakers (50 ml capacity), and the soil-filled tubes were placed in the beakers. Each treatment was replicated 4 times. The solutions migrated upward into the soil via capillary action, and after 20 hours, the wetting front was measured in three locations using a digital caliper. Means were separated at the […] via ANOVA followed by Tukey's HSD. An aqueous solution comprising 600 ppm broflanilide was made from an aqueous suspension concentrate comprising 100 g/l broflanilide. Optionally 3000 ppm of Polymer B was added. The wetting front test was made as described above with another analytical method: The soil filled tubes (four replicates for both the sample with and without polymer) were separated in seven segments with each 2 cm long. The segment “0-2 cm” was the segment on the bottom which had direct contact to the aqueous solution of broflanilide. The segments (about 4.0 g each) were extracted twice with acetonitrile. The amount of broflanilide was quantified via HPLC with UV detection.

[3] = Example 2, 600 ppm broflanilide + 1500 ppm Polymer A, Greenville silt loam, 20 hours
[4] = Example 2, 600 ppm broflanilide + 3000 ppm Polymer A, Greenville silt loam, 20 hours
[5] = Example 2, 600 ppm broflanilide + 4200 ppm Polymer A, Greenville silt loam, 20 hours
[6] = Example 4, 600 ppm broflanilide + 300 ppm Polymer A, Greenville silt loam, 20 hours
[7] = Example 4, 600 ppm broflanilide + 600 ppm Polymer A, Greenville silt loam, 20 hours
[8] = Example 4, 600 ppm broflanilide + 1500 ppm Polymer A, Greenville silt loam, 20 hours
[9] = Example 4, 600 ppm broflanilide, no polymer, Greenville silt loam, 20 hours
[10] = 600 ppm broflanilide + 3000 ppm Polymer B
[11] = 600 ppm broflanilide, no polymer
[12] = Example 1, 600 ppm chlorfenapyr + 1200 ppm Polymer B, Greenville silt loam, 20 hours
[13] = Example 1, 600 ppm chlorfenapyr + 3000 ppm Polymer B, Greenville silt loam, 20 hours
[14] = Example 5, 600 ppm fipronil + 1200 ppm Polymer B, after 2 h
[15] = Example 5, 600 ppm fipronil + 1200 ppm Polymer B, after 20 h
[16] = Example 5, 600 ppm fipronil + 3000 ppm Polymer B, after 2 h
[17] = Example 5, 600 ppm fipronil + 3000 ppm Polymer B, after 20 h
[18] = Example 5, 600 ppm fipronil, no polymer, after 20 h

Q: For `CN(C(=O)c1ccccc1)c1cccc(C(=O)Nc2c(Br)cc(C(F)(C(F)(F)F)C(F)(F)F)cc2C(F)(F)F)c1F` [Broflanilide, broflanilide], which “Average Migration” value [1, 3] is on record?
A: 9.29 cm

Q: What about the Migration [1, 3] of the same molecule?
A: 8.89 cm and 9.34 cm (2×) and 9.6 cm

Q: What about the “Average Migration” value [1, 4] of the same molecule?
A: 8.74 cm

Q: And the Migration [1, 4]?
A: 8.53 cm and 8.62 cm and 8.60 cm and 9.19 cm

Q: And the “Average Migration” value [1, 5]?
A: 8.79 cm

Q: And the Migration [1, 5]?
A: 8.37 cm and 9.22 cm and 8.74 cm and 8.82 cm

Q: What about the “Average Migration” value [1, 6] of the same molecule?
A: 7.78 cm

Q: What about the Migration [1, 6] of the same molecule?
A: 7.90 cm and 7.72 cm and 7.71 cm and 7.80 cm

Q: What about the “Average Migration” value [1, 7] of the same molecule?
A: 7.98 cm

Q: And the Migration [1, 7]?
A: 7.98 cm and 7.77 cm and 8.04 cm and 8.02 cm

Q: What about the “Average Migration” value [1, 8] of the same molecule?
A: 7.72 cm

Q: What about the Migration [1, 8] of the same molecule?
A: 7.73 cm and 7.69 cm and 7.82 cm and 7.64 cm

Q: And the “Average Migration” value [1, 9]?
A: 6.89 cm

Q: And the Migration [1, 9]?
A: 7.32 cm and 6.75 cm and 6.61 cm and 6.88 cm

Q: What about the “Concentration of broflanilide in segment 0-2 cm (average of four replicates)” value [2, 10] of the same molecule?
A: 170 ppm

Q: What about the “Concentration of broflanilide in segment 2-4 cm (average of four replicates)” value [2, 10] of the same molecule?
A: 36 ppm

Q: And the “Concentration of broflanilide in segment 4-6 cm (average of four replicates)” value [2, 10]?
A: 16 ppm

Q: And the “Concentration of broflanilide in segment 6-8 cm (average of four replicates)” value [2, 10]?
A: 4 ppm

Q: And the “Concentration of broflanilide in segment 8-10 cm (average of four replicates)” value [2, 10]?
A: 0 ppm

Q: And the “Concentration of broflanilide in segment 0-2 cm (average of four replicates)” value [2, 11]?
A: 127 ppm

Q: What about the “Concentration of broflanilide in segment 2-4 cm (average of four replicates)” value [2, 11] of the same molecule?
A: 51 ppm

Q: What about the “Concentration of broflanilide in segment 4-6 cm (average of four replicates)” value [2, 11] of the same molecule?
A: 3 ppm

Q: And the “Concentration of broflanilide in segment 6-8 cm (average of four replicates)” value [2, 11]?
A: 0 ppm

Q: What about the “Concentration of broflanilide in segment 8-10 cm (average of four replicates)” value [2, 11] of the same molecule?
A: 0 ppm

Q: With `CCOCn1c(-c2ccc(Cl)cc2)c(C#N)c(Br)c1C(F)(F)F` [Chlorfenapyr, chlorfenapyr] as the molecule, how does the Migration ([1]; Example 1, 600 ppm chlorfenapyr (Phantom SC), no polymer, Greenville silt loam, 20 hours) read?
A: 7.7780 cm and 7.5100 cm and 7.6600 cm and 7.7640 cm

Q: And the “Average Migration” value [1, 12]?
A: 8.39 cm

Q: And the Migration [1, 12]?
A: 8.3770 cm and 8.3350 cm and 8.4290 cm and 8.4350 cm

Q: And the “Average Migration” value [1, 13]?
A: 8.81 cm

Q: And the Migration [1, 13]?
A: 8.7420 cm and 8.7610 cm and 8.8760 cm and 8.8460 cm

Q: What about the “Average Migration” value ([1]; Example 1, 600 ppm chlorfenapyr, no polymer, Greenville silt loam, 20 hours) of the same molecule?
A: 7.68 cm

Q: What does the source list for `N#Cc1nn(-c2c(Cl)cc(C(F)(F)F)cc2Cl)c(N)c1[S+]([O-])C(F)(F)F` (stereo not drawn) [Fipronil, fipronil]?
A: Migration ([1]; Example 5, 600 ppm fipronil (Termidor SC), no polymer, after 2 h): 6.0 cm and 6.1 cm and 6.5 cm and 6.4 cm; Average Migration [1, 14]: 6.70 cm; Migration [1, 14]: 6.5 cm and 7.0 cm and 6.7 cm and 6.6 cm; Average Migration [1, 15]: 7.93 cm; Migration [1, 15]: 7.7 cm and 8.0 cm (3×); Average Migration [1, 16]: 6.98 cm; Migration [1, 16]: 7.1 cm and 7.0 cm (2×) and 6.8 cm; Average Migration [1, 17]: 8.40 cm; Migration [1, 17]: 8.5 cm and 8.3 cm and 8.4 cm (2×); Average Migration ([1]; Example 5, 600 ppm fipronil, no polymer, after 2 h): 6.25 cm; Average Migration [1, 18]: 7.38 cm; Migration [1, 18]: 7.0 cm and 7.4 cm (2×) and 7.7 cm
